Publication PMC4770772 (Oncotarget, 2015)
Positions count from the first letter of the chain named. Where two headings read alike, the source gives them in different places.

How the values were obtained:
ABCG2 [1] = target: T1, ABCG2 (Homo sapiens, UniProt Q9UNQ0, R482G); assay: [3H]-mitoxantrone accumulation in HEK293/R482G cells at […]; type: cell-based
T1 construct: full-length ABCG2 in HEK293 cells
T1 sequence (Q9UNQ0 1-655 R482G): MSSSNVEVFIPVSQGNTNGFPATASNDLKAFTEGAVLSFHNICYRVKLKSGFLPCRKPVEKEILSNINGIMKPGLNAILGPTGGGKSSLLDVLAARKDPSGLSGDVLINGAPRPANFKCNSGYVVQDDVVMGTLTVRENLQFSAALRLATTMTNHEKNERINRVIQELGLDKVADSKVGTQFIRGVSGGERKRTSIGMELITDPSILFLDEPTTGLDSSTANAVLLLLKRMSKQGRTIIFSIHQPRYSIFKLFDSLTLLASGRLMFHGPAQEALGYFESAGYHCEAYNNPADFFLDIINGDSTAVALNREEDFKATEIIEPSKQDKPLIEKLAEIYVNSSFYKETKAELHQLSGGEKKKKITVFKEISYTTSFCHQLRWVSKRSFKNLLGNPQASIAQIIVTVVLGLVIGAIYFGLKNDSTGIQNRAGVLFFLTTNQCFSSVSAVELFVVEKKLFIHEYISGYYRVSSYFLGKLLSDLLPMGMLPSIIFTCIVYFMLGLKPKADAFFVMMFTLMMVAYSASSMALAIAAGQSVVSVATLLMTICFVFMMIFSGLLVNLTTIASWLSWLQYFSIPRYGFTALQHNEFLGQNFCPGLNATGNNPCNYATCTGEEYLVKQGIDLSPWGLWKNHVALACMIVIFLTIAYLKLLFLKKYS

ABCG2 [2] = target: T2, ABCG2 (Homo sapiens, UniProt Q9UNQ0, R482T); assay: [3H]-mitoxantrone accumulation in HEK293/R482T cells at […]; type: cell-based
T2 construct: full-length ABCG2 in HEK293 cells
T2 sequence (Q9UNQ0 1-655 R482T): T1 sequence (Q9UNQ0 1-655 R482G) with G482T

ABCG2 [3] = target: T3, ABCG2 (Homo sapiens, UniProt Q9UNQ0); assay: vanadate-sensitive ATPase stimulation in membrane vesicles; also [3H]-mitoxantrone accumulation/efflux inhibition in HEK293/R482 cells; type: biochemical
T3 construct: membrane vesicles of High Five insect cells overexpressing ABCG2
T3 sequence (Q9UNQ0 1-655): T1 sequence (Q9UNQ0 1-655 R482G) with G482R

ABCG2 [4] = target: T3, ABCG2; assay: vanadate-sensitive ATPase stimulation in membrane vesicles; [3H]-MX efflux from ABCG2-transfected cells; type: biochemical
ABCG2 [5] = target: T3, ABCG2; type: biochemical; settings: membrane vesicles

For COc1cc(NC(=O)c2ccc(-c3ccc(Cl)cc3)o2)cc(OC)c1 [A-803467], the “[3H]-mitoxantrone accumulation in HEK293/R482G cells at 7.5 μM” value (ABCG2 [1]) was “significantly increased intracellular accumulation of [^3H]-MX in ABCG2-expressing cells HEK293/R482, HEK293/R482G and HEK293/R482T cells”, the “[3H]-mitoxantrone accumulation in HEK293/R482T cells at 7.5 μM” value (ABCG2 [2]) was “significantly increased intracellular accumulation of [^3H]-MX in ABCG2-expressing cells HEK293/R482, HEK293/R482G and HEK293/R482T cells” and the EC50 (ABCG2 [3]) was 718 nM.
O=C1c2c(O)ccc(O)c2C(=O)c2c(NCCNCCO)ccc(NCCNCCO)c21 [mitoxantrone] gave an EC50 (ABCG2 [4]) of 2200 nM.
CC[C@@]1(O)C(=O)OCc2c1cc1n(c2=O)Cc2cc3c(CN(C)C)c(O)ccc3nc2-1 [topotecan] showed an EC50 (ABCG2 [5]) of 2600 nM.
